The compounds below were run on HCT-15 (assay: SRB 48 h growth assay, Colon HCT-15). Conditions: HCT-15, Colon.
Format: cell-based, human
For `C#Cc1ccc(-n2c(/C=C/c3cc(OC)c(OC)c(OC)c3)nc3ncccc3c2=O)cc1` [4q, (E)-3-(4-Ethynylphenyl)-2-(3,4,5-trimethoxystyryl)pyrido[2,3-d]pyrimidin-4(3H)-one], the “Log10 TGI50” value was over −4.00.

Same assay, conditions: Homo sapiens, HCT-15, Colon, read-out: Growth Inhibition GI50
For `C#Cc1ccc(-n2c(/C=C/c3cc(OC)c(OC)c(OC)c3)nc3ncccc3c2=O)cc1` [4q, (E)-3-(4-Ethynylphenyl)-2-(3,4,5-trimethoxystyryl)pyrido[2,3-d]pyrimidin-4(3H)-one], the GI50 was 5.58 µM.

Same assay, conditions: Homo sapiens, HCT-15, Colon, read-out: Log10 GI50 (converted)
`C#Cc1ccc(-n2c(/C=C/c3cc(OC)c(OC)c(OC)c3)nc3ncccc3c2=O)cc1` [4q, (E)-3-(4-Ethynylphenyl)-2-(3,4,5-trimethoxystyryl)pyrido[2,3-d]pyrimidin-4(3H)-one] gave a GI50 of 5.62 µM.

Same assay, conditions: Homo sapiens, HCT-15, Colon, read-out: Log10 LC50 (converted)
In the case of `C#Cc1ccc(-n2c(/C=C/c3cc(OC)c(OC)c(OC)c3)nc3ncccc3c2=O)cc1` [4q, (E)-3-(4-Ethynylphenyl)-2-(3,4,5-trimethoxystyryl)pyrido[2,3-d]pyrimidin-4(3H)-one], the CC50 is reported as over 100 µM.

Each compound was assayed on NCI-H460 (assay: SRB 48 h growth assay, Non-small Cell Lung NCI-H460). Conditions: not given.
Format: cell-based, human
In the case of `C#Cc1ccc(-n2c(/C=C/c3cc(OC)c(OC)c(OC)c3)nc3ncccc3c2=O)cc1` [4q, (E)-3-(4-Ethynylphenyl)-2-(3,4,5-trimethoxystyryl)pyrido[2,3-d]pyrimidin-4(3H)-one], the “Log10 TGI50” value is reported as −4.60.

Same assay, conditions: Homo sapiens, read-out: Growth Inhibition GI50
`C#Cc1ccc(-n2c(/C=C/c3cc(OC)c(OC)c(OC)c3)nc3ncccc3c2=O)cc1` [4q, (E)-3-(4-Ethynylphenyl)-2-(3,4,5-trimethoxystyryl)pyrido[2,3-d]pyrimidin-4(3H)-one] showed a GI50 of 4.11 µM.

Same assay, conditions: Homo sapiens, read-out: Log10 GI50 (converted)
`C#Cc1ccc(-n2c(/C=C/c3cc(OC)c(OC)c(OC)c3)nc3ncccc3c2=O)cc1` [4q, (E)-3-(4-Ethynylphenyl)-2-(3,4,5-trimethoxystyryl)pyrido[2,3-d]pyrimidin-4(3H)-one] showed a GI50 of 4.07 µM.

What follows are compounds tested on T-47D (assay: SRB 48 h growth assay, Breast T-47D). Conditions: not given.
Format: cell-based, human
In the case of `C#Cc1ccc(-n2c(/C=C/c3cc(OC)c(OC)c(OC)c3)nc3ncccc3c2=O)cc1` [4q, (E)-3-(4-Ethynylphenyl)-2-(3,4,5-trimethoxystyryl)pyrido[2,3-d]pyrimidin-4(3H)-one], the “Log10 TGI50” value is reported as over −4.00.

Same assay, conditions: Homo sapiens, T47D, read-out: Growth Inhibition GI50
Compound `C#Cc1ccc(-n2c(/C=C/c3cc(OC)c(OC)c(OC)c3)nc3ncccc3c2=O)cc1` [4q, (E)-3-(4-Ethynylphenyl)-2-(3,4,5-trimethoxystyryl)pyrido[2,3-d]pyrimidin-4(3H)-one] has a GI50 of 5.85 µM.

Same assay, conditions: Homo sapiens, T47D, read-out: Log10 GI50 (converted)
Compound `C#Cc1ccc(-n2c(/C=C/c3cc(OC)c(OC)c(OC)c3)nc3ncccc3c2=O)cc1` [4q, (E)-3-(4-Ethynylphenyl)-2-(3,4,5-trimethoxystyryl)pyrido[2,3-d]pyrimidin-4(3H)-one] has a GI50 of 5.89 µM.

Same assay, conditions: Homo sapiens, T47D, read-out: Log10 LC50 (converted)
`C#Cc1ccc(-n2c(/C=C/c3cc(OC)c(OC)c(OC)c3)nc3ncccc3c2=O)cc1` [4q, (E)-3-(4-Ethynylphenyl)-2-(3,4,5-trimethoxystyryl)pyrido[2,3-d]pyrimidin-4(3H)-one] gave a CC50 of over 100 µM.

Each compound was assayed on SF-268 (assay: SRB 48 h growth assay, CNS SF-268). Conditions: Homo sapiens, SF-268, CNS, read-out: Growth Inhibition GI50.
Format: cell-based, human
In the case of `C#Cc1ccc(-n2c(/C=C/c3cc(OC)c(OC)c(OC)c3)nc3ncccc3c2=O)cc1` [4q, (E)-3-(4-Ethynylphenyl)-2-(3,4,5-trimethoxystyryl)pyrido[2,3-d]pyrimidin-4(3H)-one], the GI50 is reported as 5.33 µM.

Same assay, conditions: Homo sapiens, SF-268, CNS, read-out: Log10 GI50 (converted)
With `C#Cc1ccc(-n2c(/C=C/c3cc(OC)c(OC)c(OC)c3)nc3ncccc3c2=O)cc1` [4q, (E)-3-(4-Ethynylphenyl)-2-(3,4,5-trimethoxystyryl)pyrido[2,3-d]pyrimidin-4(3H)-one] the GI50 was 5.37 µM.

Same assay, conditions: Homo sapiens, SF-268, CNS, read-out: Log10 LC50 (converted)
In the case of `C#Cc1ccc(-n2c(/C=C/c3cc(OC)c(OC)c(OC)c3)nc3ncccc3c2=O)cc1` [4q, (E)-3-(4-Ethynylphenyl)-2-(3,4,5-trimethoxystyryl)pyrido[2,3-d]pyrimidin-4(3H)-one], the CC50 is reported as over 100 µM.

Same assay, conditions: SF-268, CNS
In the case of `C#Cc1ccc(-n2c(/C=C/c3cc(OC)c(OC)c(OC)c3)nc3ncccc3c2=O)cc1` [4q, (E)-3-(4-Ethynylphenyl)-2-(3,4,5-trimethoxystyryl)pyrido[2,3-d]pyrimidin-4(3H)-one], the “Log10 TGI50” value is reported as −4.01.

These compounds were tested on U251 (assay: SRB 48 h growth assay, CNS U251). Conditions: not given.
Format: cell-based, human
For `C#Cc1ccc(-n2c(/C=C/c3cc(OC)c(OC)c(OC)c3)nc3ncccc3c2=O)cc1` [4q, (E)-3-(4-Ethynylphenyl)-2-(3,4,5-trimethoxystyryl)pyrido[2,3-d]pyrimidin-4(3H)-one], the “Log10 TGI50” value was over −4.00.

Same assay, conditions: Homo sapiens, U-251, read-out: Growth Inhibition GI50
`C#Cc1ccc(-n2c(/C=C/c3cc(OC)c(OC)c(OC)c3)nc3ncccc3c2=O)cc1` [4q, (E)-3-(4-Ethynylphenyl)-2-(3,4,5-trimethoxystyryl)pyrido[2,3-d]pyrimidin-4(3H)-one] gave a GI50 of 9.93 µM.

Same assay, conditions: Homo sapiens, U-251, read-out: Log10 GI50 (converted)
Work on `C#Cc1ccc(-n2c(/C=C/c3cc(OC)c(OC)c(OC)c3)nc3ncccc3c2=O)cc1` [4q, (E)-3-(4-Ethynylphenyl)-2-(3,4,5-trimethoxystyryl)pyrido[2,3-d]pyrimidin-4(3H)-one] yielded a GI50 of 10 µM.

Same assay, conditions: Homo sapiens, U-251, read-out: Log10 LC50 (converted)
`C#Cc1ccc(-n2c(/C=C/c3cc(OC)c(OC)c(OC)c3)nc3ncccc3c2=O)cc1` [4q, (E)-3-(4-Ethynylphenyl)-2-(3,4,5-trimethoxystyryl)pyrido[2,3-d]pyrimidin-4(3H)-one] gave a CC50 of over 100 µM.

Each compound was assayed on HT-29 (assay: SRB 48 h growth assay, Colon HT-29). Conditions: HT-29, Colon.
Format: cell-based, human
With `C#Cc1ccc(-n2c(/C=C/c3cc(OC)c(OC)c(OC)c3)nc3ncccc3c2=O)cc1` [4q, (E)-3-(4-Ethynylphenyl)-2-(3,4,5-trimethoxystyryl)pyrido[2,3-d]pyrimidin-4(3H)-one] the “Log10 TGI50” value was −4.82.

Same assay, conditions: Homo sapiens, HT-29, Colon, read-out: Growth Inhibition GI50
Work on `C#Cc1ccc(-n2c(/C=C/c3cc(OC)c(OC)c(OC)c3)nc3ncccc3c2=O)cc1` [4q, (E)-3-(4-Ethynylphenyl)-2-(3,4,5-trimethoxystyryl)pyrido[2,3-d]pyrimidin-4(3H)-one] yielded a GI50 of 3.92 µM.

Same assay, conditions: Homo sapiens, HT-29, Colon, read-out: Log10 GI50 (converted)
`C#Cc1ccc(-n2c(/C=C/c3cc(OC)c(OC)c(OC)c3)nc3ncccc3c2=O)cc1` [4q, (E)-3-(4-Ethynylphenyl)-2-(3,4,5-trimethoxystyryl)pyrido[2,3-d]pyrimidin-4(3H)-one] showed a GI50 of 3.89 µM.

Same assay, conditions: Homo sapiens, HT-29, Colon, read-out: Log10 LC50 (converted)
For `C#Cc1ccc(-n2c(/C=C/c3cc(OC)c(OC)c(OC)c3)nc3ncccc3c2=O)cc1` [4q, (E)-3-(4-Ethynylphenyl)-2-(3,4,5-trimethoxystyryl)pyrido[2,3-d]pyrimidin-4(3H)-one], the CC50 was over 100 µM.

What follows are compounds tested on SK-MEL-2 (assay: SRB 48 h growth assay, Melanoma SK-MEL-2). Conditions: Homo sapiens, SK-MEL-2, Melanoma, read-out: Growth Inhibition GI50.
Format: cell-based, human
Compound `C#Cc1ccc(-n2c(/C=C/c3cc(OC)c(OC)c(OC)c3)nc3ncccc3c2=O)cc1` [4q, (E)-3-(4-Ethynylphenyl)-2-(3,4,5-trimethoxystyryl)pyrido[2,3-d]pyrimidin-4(3H)-one] has a GI50 of 4.54 µM.

Same assay, conditions: Homo sapiens, SK-MEL-2, Melanoma, read-out: Log10 GI50 (converted)
Work on `C#Cc1ccc(-n2c(/C=C/c3cc(OC)c(OC)c(OC)c3)nc3ncccc3c2=O)cc1` [4q, (E)-3-(4-Ethynylphenyl)-2-(3,4,5-trimethoxystyryl)pyrido[2,3-d]pyrimidin-4(3H)-one] yielded a GI50 of 4.57 µM.

Source: patent publication US9783537B2, “3-(4-ethylnylphenyl) pyridopyrimidinone compounds and process for preparation thereof useful as potential anticancer agents” (Council of Scientific & Industrial Research, priority 2013, dated 2017)
